How the values were obtained:
[1] = Comparison in beef bouillon; settings: 2 ppm, Maggi beef bouillon 1 tablet in 500 ml hot water
Experimental: Comparison in Beef Bouillon
Base is Maggi beef bouillon 1 tablet in 500 ml of hot water

[2] = Tasting in low fat salad dressing; settings: 0.5 PPM in low fat salad dressing (13.6% fat)
Experimental: (§1) The following formulations were prepared and tasted by trained panelists.
low fat salad dressing (13.6% Fat)

[3] = Test on Kikkoman soy sauce low salt; settings: 0.5 ppm
Text: Test on Kikkoman Soy Sauce Low Salt
Base is Kikkoman soy sauce

[4] = Tasting in soy based product (salt reduced kikoman soy sauce)
Experimental: as §1
(§2) Salt level pure product between 5-40%
(§3) Salt level in application 0.3-1.0%
C18:2-gaba-(0.5 ppm) was added to a 1% diluted salt reduced kikoman soy sauce (9% salt).
C18:2-gaba-(0.5 ppm) was added to pure salt reduced kikoman soy sauce (9% salt).

[5] = Calve 60% reduced fat mayonnaise; settings: 0.5 ppm, Calve mayonnaise 60% reduced fat
Text: Calve 60% Reduced Fat Mayonnaise
Base is Calve Mayonnaise 60% reduced fat (market Product)

[6] = Tasting in standard chicken bouillon base; settings: 0.5 PPM in standard chicken bouillon base, 0.7% salt, 0.5% fat
Experimental: as §1
Standard Chicken bouillon base, 0.7% salt, 0.5% fat

[7] = Tasting in spreadable cheese ERU; settings: 0.5 PPM in spreadable cheese ERU
Experimental: as §1

[8] = Test on Heineken beer; settings: 0.5 ppm
Experimental: In Heineken beer (Market Product) C18:2-gaba was added at 0.5 ppm.
Samples were evaluated by expert tasters. Tasters were asked to describe the samples focusing on authentic taste, alcohol impact, malt taste, hop taste, mouthfeel, fullness, salivation, sweetness, bitterness, richness, long lastingness and fattiness.

[9] = Test in chocolate flavoured drink; settings: 2 ppm, water, 4% sucrose, chocolate flavour 0.03%
Text: Test in Chocolate Flavoured Drink:
Base: Water, 4% sucrose, proprietary chocolate flavour at 0.03%

[10] = Tasting in fried potato snack product with cheese seasoning; settings: fried potato base 35% fat
Experimental: Snack Product A snack product consisting of a fried potato base, containing 35% fat and flavored with cheese seasoning containing salt, MSG, dairy, organic acids, sugars, and a flavour formulation. The following compounds were added to the snack product at the indicated levels and the tasting results arc reported: […]

[11] = Tasting in fish based product (fish sauce)
Experimental: as §1, §2, §3
C18:2-gaba-(0.5 ppm) was added to a 1% diluted fish sauce sauce (0.27% salt).
C18:2-gaba-(0.5 ppm) was added to pure fish sauce (27% salt).

[12] = Test in 3 in 1 coffee; settings: 1 ppm, 3-in-1 coffee beverage with sucrose and creamer with fat
Experimental: In a 3 in 1 Coffee beverage from Nestle (market product) sweetened with sucrose and containing creamer with fat C18:2-gaba was added.
(§4) Samples were evaluated by expert tasters. Tasters were asked to describe the samples focusing on authentic taste, mouthfeel, fullness, salivation, sweetness, juiciness, richness, long lastingness and fattiness.
Base is 3-in-1 Coffee beverage (market product) sweetened with sucrose and containing creamer with fat

[13] = Test in a strawberry yoghurt; settings: 2 ppm, 1.5% fat yoghurt, 8% sucrose, strawberry flavour 0.015%
Text: Test in a Strawberry Yoghurt
Base: Yoghurt 1.5% fat yoghurt, 8% sucrose, proprietary strawberry flavour @ 0.015%

[14] = Calve salad dressing low fat; settings: 0.5 ppm
Text: Calve Salad Dressing Low Fat:
Base is Calve salad dressing (market product)

[15] = Test in pineapple flavoured drink; settings: 1 ppm, water, 8% sugar, 0.1% citric acid, pineapple flavour 0.03%
Text: Test in Pineapple Flavoured Drink:
Base is water, 8% sugar, 0.1% citric acid and proprietary pineapple flavour at 0.03%

[16] = UHT sweetened banana flavoured milk, different fat levels; settings: banana flavour 0.04%
Experimental: UHT Sweetened Banana Flavoured Milk, With Different Fat Levels
In a UHT milk with 0% and 3% fat sweetened with 4% sucrose by weight, flavoured with proprietary banana flavour dosed at 0.04%. C18:2 gaba was added at 0.25 ppm, 0.5 ppm and 1 ppm.
as §4

[17] = Test in pear flavoured drink; settings: 1 ppm, water, 7% sugar, 0.1% citric acid, pear flavour 0.025%
Text: Test in Pear Flavoured Drink:
Base: water, 7% sugar, 0.1% citric acid, proprietary pear flavour at 0.025%

[18] = Test in vanilla milk; settings: 2 ppm, milk 0.15% fat, 4% sucrose, Vaniline flavour 10 ppm + vanilla ext. 0.03%
Text: Base: Milk 0.15% fat, sweetened with 4% sucrose by weight, flavoured with proprietary
Vaniline flavour @ 10 ppm+Vanilla ext. @ 0.03%

[19] = Activa strawberry yoghurt; settings: 2 ppm, full fat Activa strawberry flavoured yoghurt
Text: Activa Strawberry Yoghurt
In a Full fat, Activa strawberry flavoured yoghurt C18:2-gaba

[20] = Comparison in a mango juice drink; settings: 2 ppm, 8% sucrose, 0.1% citric acid, 0.18 g clear mango juice, mango flavour 0.05%
Text: Comparison in a Mango Juice Drink
Base is 8% sucrose, 0.1% citric acid, 0.18 g clear mango juice, and a proprietary mango flavour at 0.05%.

[21] = Soy milk; settings: 2 ppm, 5% sucrose, milk flavor 0.1%
Experimental: In a soy milk sweetened with 5% sucrose by weight, flavoured with a proprietary milk flavour at a dosage of 0.1%, C18:2-gaba was added at 2 ppm
Samples were evaluated by expert tasters. Tasters were asked to describe the samples focusing on authentic taste , mouthfeel, fullness, salivation, sweetness, juiciness, richness, long lastingness and fattiness.

[22] = Test on Breezer Orange; settings: 0.5 ppm
Experimental: Samples were evaluated by expert tasters. Tasters were asked to describe the samples focusing on authentic taste, alcohol impact, juiciness, mouthfeel, fullness, salivation, sweetness, bitterness, richness, long lastingness and fattiness.

[23] = Tasting in low fat mayonnaise; settings: 0.5 ppm in low fat mayonnaise (27% fat)
Experimental: as §1
Fat levels between 10-80%
Low fat Mayonnaise (27% Fat)

CCCCC/C=C\C/C=C\CCCCCCCC(=O)NCCCC(=O)O [C18:2-gaba]
taste description [1]: salty, savoury, full
tasting result (trained panelists) [2]: better mouthfeel that was impressively creamy
taste description [3]: much more salty, sweet and long lasting
tasting result (trained panelists) ([4]; 0.5 ppm in 1% diluted salt reduced kikoman soy sauce (9% salt)): stronger, more umami, long lasting, richer
tasting result (trained panelists) ([4]; 0.5 ppm in pure salt reduced kikoman soy sauce (9% salt)): strong in body and mouthfeel,and more salty
taste description [5]: full, rich , creamy, more egg yolk taste
tasting result (trained panelists) [6]: Strong, Salty, Umami, mouthfeel
tasting result (trained panelists) [7]: Full, Salty, cheese bite, more mature
description by expert tasters [8]: more hoppy, more bitter, more malt and stronger alcohol impact
taste description [9]: full, sweeter, more vanillic, milk chocolate is enhanced, very long lasting
tasting result ([10]; 0.5 ppm): increased dairy, cheesy
tasting result ([10]; 1 ppm): Fatty full, cheesy, cheese crust, long lasting
tasting result (trained panelists) ([11]; 0.5 ppm in 1% diluted fish sauce (0.27% salt)): stronger in umami, longer lasting and richer
tasting result (trained panelists) ([11]; 0.5 ppm in pure fish sauce (27% salt)): strong in body and mouthfeel, more salty, richer with more rounded fish notes
description by expert tasters [12]: very nice mouthfeel effect, creamy as if coffee creamer is added, more sweet
taste description [13]: creamy, fruity authentic strawberry , stronger strawberry, ripe, long lasting, juicy
taste description [14]: much fuller, creamy, rich, less acidic
taste description [15]: very ripe, jammy, long lasting and sweet
description by expert tasters ([16]; 0.25 ppm, UHT milk 0% fat): fuller banana, more authentic, more sweet
description by expert tasters ([16]; 0.25 ppm, UHT milk 3% fat): more authentic, less estery and more round
description by expert tasters ([16]; 0.5 ppm, UHT milk 0% fat): fuller banana, authentic, creamy and sweet
description by expert tasters ([16]; 0.5 ppm, UHT milk 3% fat): creamy banana
description by expert tasters ([16]; 1 ppm, UHT milk 0% fat): creamy, creamy banana, sweet aftertaste
description by expert tasters ([16]; 1 ppm, UHT milk 3% fat): creamy long lasting and more authentic and more impact
taste description [17]: long lasting, juicy and fatty skin like very authentic, like eating the fruit instead of drinking a drink
taste description [18]: fatty, long lasting authentic vanilla, vanilla bean taste is enhanced
taste description [19]: very creamy, full and fresh strawberry
taste description [20]: full long lasting nice juicy, almost a bit salty
taste description ([20]; listed as C18:2 gaba): fatty skin like, juicy, authentic
description by expert tasters [21]: clean, creamy, good masking of the soy bean taste, creamy and milky
description by expert tasters [22]: more alcoholic, sweeter, more juicy orange, less soapy
tasting result (trained panelists) [23]: creamy, thick mouthfeel with a full fat impression

From patent US11832638B2, “N-acyl derivatives of gamma amino-butyric acid and beta alanine as food flavouring compounds” (GIVAUDAN SA, priority 2012, dated 2023)
